Test results taken from patent US20210255193A1, “LYSINE REACTIVE PROBES AND USES THEREOF” (The Scripps Research Institute, priority 2017, published 2021).

Experiments:
Experiment in all cases: competitive isoTOP-ABPP
Assay type in all cases: binding
[1] = molecular target: T1, GTPBP3 tRNA modification GTPase GTPBP3, mitochondrial (Homo sapiens, UniProt Q969Y2); settings: for isoTOP-ABPP ratio (R) at liganded lysine Q969Y2_K492: 50 uM, in vitro, sol, 231
T1 construct: isoTOP-ABPP experiments performed in cell lysates (in vitro); endogenous in cells; host or cells: soluble proteome of human cancer cell lines (MDA-MB-231; Ramos and Jurkat also prepared)
T1 sequence (Q969Y2 21-492): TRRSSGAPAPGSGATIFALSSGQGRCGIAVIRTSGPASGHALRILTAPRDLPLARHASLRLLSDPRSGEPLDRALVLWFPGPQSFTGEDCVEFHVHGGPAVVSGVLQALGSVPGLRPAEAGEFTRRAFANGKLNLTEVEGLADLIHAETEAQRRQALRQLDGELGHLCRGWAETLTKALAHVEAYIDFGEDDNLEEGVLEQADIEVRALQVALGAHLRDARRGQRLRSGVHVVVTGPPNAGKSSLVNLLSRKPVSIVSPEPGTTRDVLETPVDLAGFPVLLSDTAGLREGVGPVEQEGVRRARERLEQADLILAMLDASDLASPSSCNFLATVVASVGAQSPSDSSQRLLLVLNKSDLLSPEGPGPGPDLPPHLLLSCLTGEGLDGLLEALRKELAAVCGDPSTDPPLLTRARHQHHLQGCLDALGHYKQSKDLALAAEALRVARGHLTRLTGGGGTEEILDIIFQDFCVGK
Protocol: (§1) In vitro covalent fragment treatment for isoTOP-ABPP. All compounds were made up as solutions in DMSO (100×) and were used at a final concentration of 50 μM for activated esters and 100 μM for guanidinylating agents. For each profiling sample, 0.5 ml of lysate was treated with 5 μl of the 100× compound stock solution or 5 μl of DMSO. Samples were treated with activated esters for
(§2) STP-alkyne labeling and click chemistry. For concentration-dependent reactivity measurements by isoTOP-ABPP, 0.5 ml proteome aliquots were treated at ambient temperature with 1 mM STP-alkyne 1 (5 μl of 100 mM stock in DMSO) and 0.1 mM STP alkyne 1 (5 μl of 10 mM stock in DMSO), respectively. For competitive isoTOP-ABPP, after in vitro fragment treatment (detailed above), the samples were labeled for 1 h at ambient temperature with 0.1 mM STP-alkyne 1 (5 μl of 10 mM stock in DMSO). Samples were conjugated by copper-mediated azide-alkyne cycloaddition (CuAAC) to either the light (1 mM STP-alkyne or fragment treated) or heavy (0.1 mM STP-alkyne or DMSO treated) TEV tags (10 μl of 5 mM stocks in DMSO, final concentration=100 μM) using tris(2-carboxyethyl)phosphine hydrochloride
(§3) R value calculation and processing. The ratios of light and heavy MS1 peaks for each unique peptide were quantified with a CIMAGE software using default parameters (3 MS1 acquisitions per peak and signal to noise threshold set to 2.5). For reactivity measurements by isoTOP-ABPP, the R value was calculated from the ratio of MS1 peak areas, comparing the 1 mM STP alkyne sample (light TEV tag) with the 0.1 mM STP alkyne sample (heavy TEV tag). For competitive isoTOP-ABPP, the R value was calculated from the ratio of MS1 peak areas, comparing the DMSO treated sample (heavy TEV tag) with the compound treated sample (light TEV tag). […] Ratios for unique peptide entries are calculated for each experiment; overlapping peptides with the same modified lysine (for example, different charge states, MudPIT chromatographic steps or tryptic termini) are grouped together and the median ratio is reported as the final ratio (R). The peptide ratios reported by CIMAGE were further filtered to ensure the removal or correction of low-quality ratios in each individual data set. The quality filters applied were the following: removal of half tryptic peptides; for ratios with high standard deviations from the median (90% of the median or above) the lowest ratio was taken instead of the median; removal of peptides with R=20 and only a single MS2 event triggered during the elution of the parent ion; manual annotation of all the peptides with ratios of 20, removing any peptides with low quality elution profiles that remained after the previous curation steps (only done for competitive isoTOP-ABPP).
(§4) Cross-data processing for fragment screening. For compound treated samples, biological replicates of the same condition were averaged, if the standard deviation was below 60% of the mean; otherwise, for lysines with at least one R value <4 for a particular compound, the lowest value of the ratio set was taken. For lysines, where all R values for a particular compound were ≥4, the average was reported. For peptides containing several possible modified lysines, the lysine with the highest number of quantification events was used for analysis and the remaining, redundant peptides were reported as alternative modification sites. Peptides included in the aggregate dataset (those used for further bioinformatics and statistical analyses) were required to have been quantified in 2 experiments for competitive isoTOP-ABPP. Lysines were categorized as liganded, if they had at least one ratio R≥4 (hit fragments). For liganded lysines with R=20 for all liganding events, lysines were required to have been quantified with R=20 in two separate experiments and were further required to have been quantified with R<20 in one additional experiment.

[2] = molecular target: T2, RPL10 60S ribosomal protein L10 (Homo sapiens, UniProt P27635); settings: for isoTOP-ABPP ratio (R) at liganded lysine P27635_K121: 50 uM, in vitro, sol, 231
T2 construct: isoTOP-ABPP experiments performed in cell lysates (in vitro); endogenous in cells; host or cells: soluble proteome of human cancer cell lines (MDA-MB-231; Ramos and Jurkat also prepared)
Protocol: as §1, §2, §3, §4

FAH Fumarylacetoacetase = molecular target: T3, FAH Fumarylacetoacetase (Homo sapiens, UniProt P16930); settings: for isoTOP-ABPP ratio (R) at liganded lysine P16930_K241: 50 uM, in vitro, sol, 231
T3 construct: isoTOP-ABPP experiments performed in cell lysates (in vitro); endogenous in cells; host or cells: soluble proteome of human cancer cell lines (MDA-MB-231; Ramos and Jurkat also prepared)
T3 sequence (P16930 1-419): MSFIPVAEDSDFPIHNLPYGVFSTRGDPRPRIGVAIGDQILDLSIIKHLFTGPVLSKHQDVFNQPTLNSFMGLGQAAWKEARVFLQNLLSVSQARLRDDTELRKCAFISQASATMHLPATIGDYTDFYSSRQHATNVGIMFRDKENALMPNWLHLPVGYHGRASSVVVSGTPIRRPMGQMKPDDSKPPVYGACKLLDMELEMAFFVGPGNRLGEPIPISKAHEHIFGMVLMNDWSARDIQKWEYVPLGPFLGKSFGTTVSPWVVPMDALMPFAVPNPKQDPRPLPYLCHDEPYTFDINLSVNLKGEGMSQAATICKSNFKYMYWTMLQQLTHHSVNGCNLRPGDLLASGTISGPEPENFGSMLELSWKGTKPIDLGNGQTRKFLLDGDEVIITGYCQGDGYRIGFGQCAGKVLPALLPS
Protocol: as §1, §2, §3, §4

[3] = molecular target: T4, GBAS Protein NipSnap homolog 2 (Homo sapiens, UniProt O75323); settings: for isoTOP-ABPP ratio (R) at liganded lysine O75323_K75: 50 uM, in vitro, sol, 231
T4 construct: isoTOP-ABPP experiments performed in cell lysates (in vitro); endogenous in cells; host or cells: MDA-MB-231 soluble lysate
T4 sequence (O75323 24-286): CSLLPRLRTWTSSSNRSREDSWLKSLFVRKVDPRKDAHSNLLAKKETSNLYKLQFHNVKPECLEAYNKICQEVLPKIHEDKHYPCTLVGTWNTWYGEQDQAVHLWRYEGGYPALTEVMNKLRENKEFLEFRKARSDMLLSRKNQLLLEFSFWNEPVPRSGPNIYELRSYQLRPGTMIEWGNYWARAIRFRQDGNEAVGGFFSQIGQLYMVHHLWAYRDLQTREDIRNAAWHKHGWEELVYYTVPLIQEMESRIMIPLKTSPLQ
Protocol: as §1, §2, §3, §4

Compound	isoTOP-ABPP ratio (R) at liganded lysine Q969Y2_K492 [1]	isoTOP-ABPP ratio (R) at liganded lysine P27635_K121 [2]	isoTOP-ABPP ratio (R) at liganded lysine P16930_K241 (FAH Fumarylacetoacetase)	isoTOP-ABPP ratio (R) at liganded lysine O75323_K75 [3]	isoTOP-ABPP ratio, lysine Q969Y2_K492 ([1]; 50 uM_231_sol_in vitro)	isoTOP-ABPP ratio, lysine O75323_K75 ([3]; 50 uM_231_sol_in vitro)	isoTOP-ABPP ratio, lysine P27635_K121 ([2]; 50 uM_231_sol_in vitro)	isoTOP-ABPP ratio, lysine P16930_K241 (FAH Fumarylacetoacetase; 50 uM_231_sol_in vitro)
O=C(Oc1ccc([N+](=O)[O-])cc1[N+](=O)[O-])C1CCN(C(=O)OCc2ccccc2)CC1 [fragment 34, 1-Benzyl 4-(2,4-dinitrophenyl) piperidine-1,4-dicarboxylate]	1.6	1.3	1.2					
O=C(CCc1coc2cc(F)ccc2c1=O)Oc1ccc([N+](=O)[O-])cc1[N+](=O)[O-] [fragment 36, 2,4-Dinitrophenyl 3-(7-fluoro-4-oxo-4H-chromen-3-yl)propanoate]	2.9	0.5	3.6	20.0				
O=C(Oc1ccc([N+](=O)[O-])cc1[N+](=O)[O-])c1ccc(-c2ccccc2)cc1 [fragment 37, 2,4-Dinitrophenyl [1,1′-biphenyl]-4-carboxylate]	1.2	0.8	1.0	1.6				
O=C(CC12CC3CC(CC(C3)C1)C2)Oc1ccc([N+](=O)[O-])cc1[N+](=O)[O-] [fragment 38, 2,4-Dinitrophenyl 2-(adamantan-1-yl)acetate]	1.1	20.0	1.0	1.3				
O=C(Oc1ccc([N+](=O)[O-])cc1[N+](=O)[O-])c1ccc(Oc2ccccc2)cc1 [fragment 39, 2,4-Dinitrophenyl 4-phenoxybenzoate]	1.2	1.0	1.2	20.0				
CC(=O)Oc1ccc([N+](=O)[O-])cc1[N+](=O)[O-] [fragment 43, 2,4-Dinitrophenyl acetate]	1.5	20.0	1.4	1.6				
N#Cc1ccc(C(=O)Oc2ccc([N+](=O)[O-])cc2[N+](=O)[O-])cc1 [fragment 44, 2,4-Dinitrophenyl 4-cyanobenzoate]					0.9	1.1	0.6	2.5
